In PubChem BioAssay (NCI):
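Cells were grown in 96-well plates and exposed to each compound for 48 hours at five concentrations; endpoints were interpolated linearly between bracketing concentrations, or set to the highest concentration if not reached. The concentration for 50% growth inhibition is given as GI50. TGI marks complete inhibition of growth.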

Experiments:
Experiment in all cases: DTP human tumour cell line panel, 48 h
[1] = tested on: HOP-62 NSCLC
[2] = tested on: KM12 colon
[3] = tested on: MOLT-4 leukemia
[4] = tested on: A549 NSCLC
[5] = tested on: UO-31 renal
[6] = tested on: COLO 205 colon
[7] = tested on: SR leukemia
[8] = tested on: PC-3 prostate
[9] = tested on: NCI/ADR-RES ovarian
[10] = tested on: MCF7 breast

Molecule `CCC1(CN(C)C)CC/C(=C\c2ccc(OC)c(OC)c2)C1=O` (centres undefined) has a TGI [1] of over 100 µM, a TGI [2] of over 100 µM and a TGI [3] of over 100 µM. It also gave a TGI [4] of over 100 µM, a TGI [5] of over 100 µM and a TGI [6] of over 100 µM.
With `COc1cccc(N2C(=O)C3C4C=C5c6ccccc6N(c6ccccc6)C5(C3C2=O)[C@H]2C(=O)N(c3cccc(OC)c3)C(=O)[C@@H]42)c1` (some centres undefined) the TGI [1] was over 100 µM, the TGI [7] was over 100 µM and the TGI [2] was over 100 µM. The TGI [3] was over 100 µM, the TGI [4] was over 100 µM and the TGI [5] was over 100 µM. It also gave a TGI [6] of over 100 µM.
For `Cc1c2c(c(C)c3c1[nH]c1ccccc13)CN(C)CC2`, the TGI [1] was over 100 µM, the TGI [7] was 87.8 µM and the TGI [2] was 33.9 µM. It also gave a TGI [3] of over 100 µM, a TGI [4] of over 100 µM and a TGI [5] of 53 µM. For the same molecule, the TGI [6] was 28.6 µM.
`NC(CSSCC(N)C(=O)O)C(=O)O` (centres undefined) was tested, and the GI50 [8] was over 100 µM, the TGI [8] was over 100 µM and the GI50 [1] was over 100 µM. For the same molecule, the TGI [1] was over 100 µM, the GI50 [2] was over 100 µM and the TGI [2] was over 100 µM. It also gave a GI50 [3] of over 100 µM, a TGI [3] of over 100 µM and a GI50 [4] of over 100 µM. The TGI [4] was over 100 µM, the GI50 [5] was over 100 µM and the TGI [5] was over 100 µM. It also gave a GI50 [9] of over 100 µM, a TGI [9] of over 100 µM and a GI50 [10] of over 100 µM. The TGI [10] was over 100 µM, the GI50 [6] was over 100 µM and the TGI [6] was over 100 µM.
`COC(=O)Cc1cc(=O)[nH]c2c1C(=O)CCC2` showed a TGI [7] of over 100 µM, a TGI [2] of over 100 µM and a TGI [3] of over 100 µM. It also gave a TGI [4] of over 100 µM and a TGI [5] of over 100 µM.
For `Cc1ccc(S(=O)(=O)N/N=C/C(C)C)cc1`, the TGI [1] was over 100 µM, the TGI [2] was over 100 µM and the TGI [3] was over 100 µM. For the same molecule, the TGI [4] was over 100 µM, the TGI [5] was over 100 µM and the TGI [6] was over 100 µM.
Work on `CC(=O)c1ccc(NC(=O)COC(=O)c2cccc3c(=O)c4ccccc4[nH]c23)cc1` yielded a TGI [1] of 90.7 µM, a TGI [7] of over 100 µM and a TGI [2] of over 100 µM. For the same molecule, the TGI [3] was over 100 µM, the TGI [4] was over 100 µM and the TGI [5] was over 100 µM. It also gave a TGI [6] of over 100 µM.
Work on `O=C1CCCCC12CCC/C2=N\O` (centres undefined) yielded a TGI [1] of over 100 µM, a TGI [7] of over 100 µM and a TGI [2] of over 100 µM. It also gave a TGI [3] of over 100 µM, a TGI [4] of over 100 µM and a TGI [5] of over 100 µM. The TGI [6] was over 100 µM.
With `O=[N+]([O-])c1cc2no[n+]([O-])c2cc1N1CCCCC1` the TGI [8] was 5.68 µM, the TGI [1] was 31.3 µM and the TGI [7] was 12.2 µM. It also gave a TGI [2] of 30.5 µM, a TGI [3] of 4.95 µM and a TGI [4] of 42.8 µM. It also gave a TGI [5] of 6.16 µM, a TGI [9] of over 20.8 µM and a TGI [6] of 30.4 µM.
In the case of `OCCN(CCO)c1cccc(N(CCO)CCO)n1`, the TGI [1] is reported as over 100 µM, the TGI [7] is reported as over 100 µM and the TGI [2] is reported as over 100 µM. It also gave a TGI [3] of over 100 µM, a TGI [4] of over 100 µM and a TGI [5] of over 100 µM. The TGI [6] was over 100 µM.
For `COc1cc2ccnc3c(=C(SC)SC)c(=O)c(c1OC)c23`, the TGI [1] was over 100 µM, the TGI [2] was 53.5 µM and the TGI [3] was 23.8 µM. It also gave a TGI [4] of over 100 µM, a TGI [5] of 29.3 µM and a TGI [6] of 10.5 µM.
`O=C1OC(=O)C2C3C=CC(C12)C1C2C=CC2C31` (centres undefined) gave a TGI [1] of over 100 µM, a TGI [7] of over 100 µM and a TGI [2] of over 100 µM. It also gave a TGI [3] of over 100 µM, a TGI [4] of over 100 µM and a TGI [6] of over 100 µM.
In the case of `CC(C)(C)N/N=C(\C(=O)NC1=C(Cl)C(=O)c2ccccc2C1=O)C1C=CCS1(=O)=O` (centres undefined), the TGI [8] is reported as 62.2 µM, the TGI [2] is reported as over 100 µM and the TGI [3] is reported as over 100 µM. The TGI [4] was 38.5 µM, the TGI [5] was 37.7 µM and the TGI [9] was 71.9 µM. The TGI [10] was 29 µM and the TGI [6] was 30.2 µM.
